Data: patent publication EP0477107B1, “Steroids contained in cyclodextrins” (Laboratoires BESINS ISCOVESCO Société anonyme dite :, priority 1990, dated 1992)
In brackets after ≈: the same amount, converted by molar mass. Read-outs that look alike come from different tables or passages of the source.

Assay: Saturation solubility of steroids in water and in aqueous cyclodextrin solutions (25°, 72 h stirring, filtration, assay of supernatant)
Format: physicochemical
Experimental: On réalise des solutions de bétacyclodextrines à différentes concentrations de 0 à 5mM. A ces différentes solutions, on ajoute de la prégnane-5-béta-ol-3alpha-one-20 par pincées et ce jusqu'à apparition d'un précipité. On met sous agitation magnétique à 25° pendant 72 heures en prenant soin de vérifier à intervalles réguliers qu'il y a toujours saturation en stéroïdes. Au bout de 72 heures, on filtre les solutions ainsi réalisées et on dose le surnageant. Les résultats obtenus font l'objet de la courbe de la figure 1.
Excepté la concentration en ladite cyclodextrine qui varie de 0 à 32mM, on procède selon le même protocole qu'à l'exemple 1; les résultats sont illustrés par la courbe de la figure 2.
On procède selon le même protocole qu'à l'exemple 1. Les résultats sont représentés par la courbe de la figure 3.
On travaille selon les mêmes conditions qu'à l'exemple 1. Les résultats obtenus sont schématisés par la courbe de la figure 4.
On suit encore le même protocole qu'à l'exemple 1 sauf en ce que la concentration en bétacyclodextrine varie de 0 à 4mM et les résultats font l'objet de la courbe de la figure 5.
Ici encore on suit le même protocole qu'à l'exemple 1 sauf en ce que la concentration en hydroxypropybéta-cyclodextrine varie de 0 à 32mM et les résultats sont représentés par la courbe de la figure 6.

Row | Molecule | SOLUBILITE EN GRAMMES PAR LITRE dans eau + bétacyclodextrine (optimal solubility read from the curves at the adequate bétacyclodextrine concentration (0 to 5mM; 0 to 4mM for dihydro-4-progestérone), 25°, 72 h) | SOLUBILITE EN GRAMMES PAR LITRE dans eau + hydroxypropylbétacyclodextrine (optimal solubility read from the curves at the adequate hydroxypropylbétacyclodextrine concentration (up to 32mM), 25°, 72 h) | SOLUBILITE EN GRAMMES PAR LITRE dans l'eau (water without cyclodextrin, 25°, 72 h) | solubility at 72 h (water + betacyclodextrin, read-out: SOLUBILITE EN GRAMMES PAR LITRE dans eau + bétacyclodextrine) [µg/mL] | solubility at 72 h (water + hydroxypropylbetacyclodextrin, optimal solubility read from the curves at the adequate hydroxypropylbétacyclodextrine concentration (up to 32mM), 25°, 72 h, read-out: SOLUBILITE EN GRAMMES PAR LITRE dans eau + hydroxypropylbétacyclodextrine) [µg/mL] | solubility at 72 h (water without cyclodextrin, 25°, 72 h, read-out: SOLUBILITE EN GRAMMES PAR LITRE dans l'eau) [µg/mL]
1 | prégnane-diol-3,20 [Dihydroprogestérone] | 0,06 GRAMMES PAR LITRE | 1,4 GRAMMES PAR LITRE | 0,005 GRAMMES PAR LITRE |  |  | 
2 | CC(=O)[C@H]1CC[C@H]2[C@@H]3CC[C@@H]4C[C@H](O)CC[C@]4(C)[C@H]3CC[C@]12C [Prégnanolone, prégnanol-3alpha-one-20] |  |  |  | 440 | 3000 | 5 (≈ 15.7 µM)
